Reference: the supplement of paper PMC6045584
± gives the standard deviation of the averaged measurements.

Tests used:
SALINOMYCIN = compound: CC[C@@H](C(=O)[C@@H](C)[C@@H](O)[C@H](C)[C@@H]1O[C@@H]([C@@H](CC)C(=O)O)CC[C@@H]1C)[C@H]1O[C@]2(C=C[C@@H](O)[C@]3(CC[C@@](C)([C@H]4CC[C@](O)(CC)[C@H](C)O4)O3)O2)[C@H](C)C[C@@H]1C [SALINOMYCIN]; test: surviving fraction relative to DMSO-only wells; higher = less growth inhibition; settings: exposure time: 5 days
Summary of the method: (§1)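 Viability was determined by CellTiter-Glo luminescence, expressed as surviving fraction normalised to the median of DMSO-only wells. The cells were log-phase tumour cell lines seeded at 250–500 per well in 384-well plates and, after 24 hours, exposed continuously for five days to inhibitors at 0.5, 1, 5, 10, 50, 100, 500 and 1000 nM. Three screens per line were run, keeping only lines with replicate Pearson r >0.7 and median Z' >0.3.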

FLUOROURACIL = compound: O=c1[nH]cc(F)c(=O)[nH]1 [FLUOROURACIL]; test: as above; settings: exposure time: 5 days
Summary of the method: as §1

MDAMB436 BREAST gave a surviving fraction (SALINOMYCIN; 0.5 nM) of 0.858 ± 0.039, a surviving fraction (SALINOMYCIN; 1 nM) of 0.902 ± 0.047 and a surviving fraction (SALINOMYCIN; 5 nM) of 0.668 ± 0.033. The surviving fraction (SALINOMYCIN; 10 nM) was 0.567 ± 0.042, the surviving fraction (SALINOMYCIN; 50 nM) was 0.464 ± 0.059 and the surviving fraction (SALINOMYCIN; 100 nM) was 0.375 ± 0.049. The surviving fraction (SALINOMYCIN; 500 nM) was 0.105 ± 0.0028, the surviving fraction (SALINOMYCIN; 1000 nM) was 0.0963 ± 0.0055 and the surviving fraction (FLUOROURACIL; 0.5 nM) was 0.937 ± 0.046. It also gave a surviving fraction (FLUOROURACIL; 1 nM) of 0.921 ± 0.063, a surviving fraction (FLUOROURACIL; 5 nM) of 0.964 ± 0.12 and a surviving fraction (FLUOROURACIL; 10 nM) of 0.846 ± 0.11. For the same test system, the surviving fraction (FLUOROURACIL; 50 nM) was 0.84 ± 0.12, the surviving fraction (FLUOROURACIL; 100 nM) was 0.815 ± 0.029 and the surviving fraction (FLUOROURACIL; 500 nM) was 0.722 ± 0.031. The surviving fraction (FLUOROURACIL; 1000 nM) was 0.625 ± 0.013.

MDAMB453 BREAST was tested, and the surviving fraction (SALINOMYCIN; 0.5 nM) was 0.969 ± 0.025, the surviving fraction (SALINOMYCIN; 1 nM) was 0.9587 ± 0.0015 and the surviving fraction (SALINOMYCIN; 5 nM) was 0.978 ± 0.027. The surviving fraction (SALINOMYCIN; 10 nM) was 0.9897 ± 0.009, the surviving fraction (SALINOMYCIN; 50 nM) was 1.02 ± 0.058 and the surviving fraction (SALINOMYCIN; 100 nM) was 0.993 ± 0.045. For the same test system, the surviving fraction (SALINOMYCIN; 500 nM) was 0.56 ± 0.032, the surviving fraction (SALINOMYCIN; 1000 nM) was 0.426 ± 0.06 and the surviving fraction (FLUOROURACIL; 0.5 nM) was 1.01 ± 0.092. For the same test system, the surviving fraction (FLUOROURACIL; 1 nM) was 1.01 ± 0.13, the surviving fraction (FLUOROURACIL; 5 nM) was 1.06 ± 0.11 and the surviving fraction (FLUOROURACIL; 10 nM) was 0.987 ± 0.079. It also gave a surviving fraction (FLUOROURACIL; 50 nM) of 0.979 ± 0.035, a surviving fraction (FLUOROURACIL; 100 nM) of 0.968 ± 0.016 and a surviving fraction (FLUOROURACIL; 500 nM) of 0.795 ± 0.026. The surviving fraction (FLUOROURACIL; 1000 nM) was 0.706 ± 0.009.

MDAMB468 BREAST showed a surviving fraction (SALINOMYCIN; 0.5 nM) of 1 ± 0.02, a surviving fraction (SALINOMYCIN; 1 nM) of 1 ± 0.087 and a surviving fraction (SALINOMYCIN; 5 nM) of 1.04 ± 0.026. The surviving fraction (SALINOMYCIN; 10 nM) was 1.01 ± 0.052, the surviving fraction (SALINOMYCIN; 50 nM) was 1.12 ± 0.022 and the surviving fraction (SALINOMYCIN; 100 nM) was 1.09 ± 0.04. For the same test system, the surviving fraction (SALINOMYCIN; 500 nM) was 0.648 ± 0.054, the surviving fraction (SALINOMYCIN; 1000 nM) was 0.329 ± 0.018 and the surviving fraction (FLUOROURACIL; 0.5 nM) was 0.887 ± 0.039. The surviving fraction (FLUOROURACIL; 1 nM) was 0.885 ± 0.095, the surviving fraction (FLUOROURACIL; 5 nM) was 0.919 ± 0.064 and the surviving fraction (FLUOROURACIL; 10 nM) was 0.89 ± 0.058. For the same test system, the surviving fraction (FLUOROURACIL; 50 nM) was 0.881 ± 0.12, the surviving fraction (FLUOROURACIL; 100 nM) was 0.816 ± 0.06 and the surviving fraction (FLUOROURACIL; 500 nM) was 0.859 ± 0.076. It also gave a surviving fraction (FLUOROURACIL; 1000 nM) of 0.706 ± 0.097.

In the case of MFM223 BREAST, the surviving fraction (SALINOMYCIN; 0.5 nM) is reported as 1.08 ± 0.091, the surviving fraction (SALINOMYCIN; 1 nM) is reported as 1.05 ± 0.024 and the surviving fraction (SALINOMYCIN; 5 nM) is reported as 1.03 ± 0.03. For the same test system, the surviving fraction (SALINOMYCIN; 10 nM) was 1.01 ± 0.036, the surviving fraction (SALINOMYCIN; 50 nM) was 0.979 ± 0.051 and the surviving fraction (SALINOMYCIN; 100 nM) was 0.461 ± 0.03. It also gave a surviving fraction (SALINOMYCIN; 500 nM) of 0.0642 ± 0.0082, a surviving fraction (SALINOMYCIN; 1000 nM) of 0.0428 ± 0.0051 and a surviving fraction (FLUOROURACIL; 0.5 nM) of 1.14 ± 0.21. For the same test system, the surviving fraction (FLUOROURACIL; 1 nM) was 1.12 ± 0.17, the surviving fraction (FLUOROURACIL; 5 nM) was 1.18 ± 0.22 and the surviving fraction (FLUOROURACIL; 10 nM) was 1.096 ± 0.0076. For the same test system, the surviving fraction (FLUOROURACIL; 50 nM) was 0.719 ± 0.014, the surviving fraction (FLUOROURACIL; 100 nM) was 0.772 ± 0.062 and the surviving fraction (FLUOROURACIL; 500 nM) was 0.738 ± 0.036. For the same test system, the surviving fraction (FLUOROURACIL; 1000 nM) was 0.667 ± 0.032.

With MG63 BONE the surviving fraction (SALINOMYCIN; 0.5 nM) was 0.963 ± 0.02, the surviving fraction (SALINOMYCIN; 1 nM) was 0.941 ± 0.032 and the surviving fraction (SALINOMYCIN; 5 nM) was 0.98 ± 0.021. For the same test system, the surviving fraction (SALINOMYCIN; 10 nM) was 0.946 ± 0.045, the surviving fraction (SALINOMYCIN; 50 nM) was 1.006 ± 0.003 and the surviving fraction (SALINOMYCIN; 100 nM) was 0.871 ± 0.0095. The surviving fraction (SALINOMYCIN; 500 nM) was 0.167 ± 0.0053, the surviving fraction (SALINOMYCIN; 1000 nM) was 0.081 ± 0.0044 and the surviving fraction (FLUOROURACIL; 0.5 nM) was 1.02 ± 0.041. It also gave a surviving fraction (FLUOROURACIL; 1 nM) of 1 ± 0.028, a surviving fraction (FLUOROURACIL; 5 nM) of 1.05 ± 0.021 and a surviving fraction (FLUOROURACIL; 10 nM) of 1.03 ± 0.019. For the same test system, the surviving fraction (FLUOROURACIL; 50 nM) was 1.06 ± 0.024, the surviving fraction (FLUOROURACIL; 100 nM) was 0.99 ± 0.023 and the surviving fraction (FLUOROURACIL; 500 nM) was 0.947 ± 0.024. It also gave a surviving fraction (FLUOROURACIL; 1000 nM) of 0.805 ± 0.013.

MHM BONE was tested, and the surviving fraction (SALINOMYCIN; 0.5 nM) was 0.988 ± 0.042, the surviving fraction (SALINOMYCIN; 1 nM) was 0.981 ± 0.046 and the surviving fraction (SALINOMYCIN; 5 nM) was 1.01 ± 0.019. It also gave a surviving fraction (SALINOMYCIN; 10 nM) of 0.9657 ± 0.0042, a surviving fraction (SALINOMYCIN; 50 nM) of 1.037 ± 0.009 and a surviving fraction (SALINOMYCIN; 100 nM) of 1.081 ± 0.0025. It also gave a surviving fraction (SALINOMYCIN; 500 nM) of 0.921 ± 0.044, a surviving fraction (SALINOMYCIN; 1000 nM) of 0.694 ± 0.054 and a surviving fraction (FLUOROURACIL; 0.5 nM) of 1.04 ± 0.07. It also gave a surviving fraction (FLUOROURACIL; 1 nM) of 1.02 ± 0.028, a surviving fraction (FLUOROURACIL; 5 nM) of 1.06 ± 0.047 and a surviving fraction (FLUOROURACIL; 10 nM) of 1.04 ± 0.039. It also gave a surviving fraction (FLUOROURACIL; 50 nM) of 1.084 ± 0.0067, a surviving fraction (FLUOROURACIL; 500 nM) of 1.063 ± 0.0092 and a surviving fraction (FLUOROURACIL; 1000 nM) of 0.974 ± 0.034.

Test System NCIH441 LUNG has a surviving fraction (SALINOMYCIN; 0.5 nM) of 1.01 ± 0.034, a surviving fraction (SALINOMYCIN; 1 nM) of 1.01 ± 0.038 and a surviving fraction (SALINOMYCIN; 5 nM) of 1.06 ± 0.054. For the same test system, the surviving fraction (SALINOMYCIN; 10 nM) was 0.904 ± 0.06, the surviving fraction (SALINOMYCIN; 50 nM) was 1.12 ± 0.023 and the surviving fraction (SALINOMYCIN; 100 nM) was 1.05 ± 0.049. It also gave a surviving fraction (SALINOMYCIN; 500 nM) of 0.715 ± 0.049, a surviving fraction (SALINOMYCIN; 1000 nM) of 0.504 ± 0.061 and a surviving fraction (FLUOROURACIL; 0.5 nM) of 1.08 ± 0.054. The surviving fraction (FLUOROURACIL; 1 nM) was 1.05 ± 0.076, the surviving fraction (FLUOROURACIL; 5 nM) was 1.06 ± 0.11 and the surviving fraction (FLUOROURACIL; 10 nM) was 1.1 ± 0.021. It also gave a surviving fraction (FLUOROURACIL; 50 nM) of 0.996 ± 0.16, a surviving fraction (FLUOROURACIL; 100 nM) of 0.95 ± 0.18 and a surviving fraction (FLUOROURACIL; 500 nM) of 0.998 ± 0.1. The surviving fraction (FLUOROURACIL; 1000 nM) was 0.798 ± 0.11.

With NOS1 BONE the surviving fraction (SALINOMYCIN; 0.5 nM) was 1.01 ± 0.071, the surviving fraction (SALINOMYCIN; 1 nM) was 1.07 ± 0.15 and the surviving fraction (SALINOMYCIN; 5 nM) was 1.09 ± 0.025. For the same test system, the surviving fraction (SALINOMYCIN; 10 nM) was 1.05 ± 0.066, the surviving fraction (SALINOMYCIN; 50 nM) was 1.06 ± 0.083 and the surviving fraction (SALINOMYCIN; 100 nM) was 1.09 ± 0.062. It also gave a surviving fraction (SALINOMYCIN; 500 nM) of 0.0907 ± 0.013, a surviving fraction (SALINOMYCIN; 1000 nM) of 0.0537 ± 0.007 and a surviving fraction (FLUOROURACIL; 0.5 nM) of 1.01 ± 0.032. It also gave a surviving fraction (FLUOROURACIL; 1 nM) of 1.01 ± 0.14, a surviving fraction (FLUOROURACIL; 5 nM) of 1.09 ± 0.12 and a surviving fraction (FLUOROURACIL; 10 nM) of 1.14 ± 0.11. For the same test system, the surviving fraction (FLUOROURACIL; 50 nM) was 0.91 ± 0.12, the surviving fraction (FLUOROURACIL; 100 nM) was 0.943 ± 0.073 and the surviving fraction (FLUOROURACIL; 500 nM) was 0.799 ± 0.065. The surviving fraction (FLUOROURACIL; 1000 nM) was 0.694 ± 0.081.
